Results reported in patent US20240299420A1, “TETRACYCLINE DERIVATIVE-INDUCED MITOHORMESIS MEDIATES DISEASE TOLERANCE AGAINST VIRAL INFECTIONS” (priority 2021, published 2024).
Entries after “also recorded” stand apart in the source; their conditions may differ.

What was measured:
HEK293T cells [1] = assay: MSR gene transcripts by RT-qPCR in HEK293T cells; assay type: cell-based, human; settings: 24 h, compared with Dox
Description: Transcript levels of the indicated MSR genes measured by RT-qPCR (n=4).
HEK293T (Human embryonic kidney 293T) cells were purchased from ATCC and have been routinely checked in the laboratory for mycoplasma contamination with the MycoProbe detection kit (R&D systems). HEK293T were grown at 37° C. in a humidified atmosphere of 5% CO2/95% air in DMEM medium with 4.5 g/L glucose (Gibco) including 10% FBS (Gibco), 1× nonessential amino acids (Invitrogen) and 5 mM penicillin/streptomycin (Invitrogen). Cells were treated for 24 h with the indicated doses of compounds 24 hours after seeding.
RNA from cells and tissues was extracted using TRIzol and then reverse-transcribed into cDNA by the QuantiTect Reverse Transcription Kit (Qiagen) following the manufacturer's instructions. The qPCR reactions were performed using the LightCycler 480 II system and SYBR Green qPCR Master mix (Roche). All results are presented relative to the mean of housekeeping genes (ΔΔCt method). All mRNA expression levels were corrected for expression of the housekeeping gene 36B4 or Actb for samples of mouse origin, ACTB for samples of human origin.

E. coli = assay: Minimum inhibitory concentration (MIC) of bacterial growth; assay type: cell-based; settings: compared with Dox
gut bacterial community = settings: Dox 40 mpkd; for gut bacterial community composition (perMANOVA, NMDS): after 3 and 6 days of treatment, 9-TB 1 mpkd, vs untreated mice
IFV H1N1 PR8 strain [2] = assay: IFV infection in BALB/cN mice, 175 PFU, preventive treatment; assay type: in vivo, mouse; settings: for survival (mice recovering): Dox 40 mpkd or 9-TB 1 mpkd daily i.p., all control mice dead by day 11
[3] = tested on: mouse bone marrow derived macrophages (BMDM); assay: IFNβ measurement in BMDM culture medium (ELISA); assay type: cell-based; settings: 24 hours, 9-TB 1.88 μg/ml, ATc 3.75 and 7.5 μg/ml vs Dox 7.5-15 μg/ml
HEK293T cells [4] = assay: Mitonuclear protein imbalance (MTCO1/ATP5A immunoblot) in HEK293T cells; assay type: cell-based, human; settings: 24 hours, stronger than Dox
Description: The mitonuclear protein imbalance may be determined by a disbalanced ratio between a mitochondrial-encoded gene (e.g. MTCO1) versus a nuclear-encoded gene (e.g. ATP5A) of OXPHOS subunits as is illustrated by FIG. 3A.
A. Immunoblots of HEK293T cells for the OXPHOS subunits ATP5A (encoded in nuclear DNA) and MTCO1 (encoded in mitochondrial DNA) with TUBULIN serving as a control. Quantification of the relative MTCO1/ATP5A ratio is shown on the right. […] Statistical analysis was performed by ANOVA followed by Tukey post-hoc test (*p≤0.05, **p≤0.01, ***p≤0.001). Error bars represent standard error mean (SEM).
HEK293T (Human embryonic kidney 293T) cells were purchased from ATCC and have been routinely checked in the laboratory for mycoplasma contamination with the MycoProbe detection kit (R&D systems). […]
Tissues and cells were lysed using RIPA buffer (50 mM Tris-HCl pH 7.4, 150 mM NaCl, 1% NP-40, 0.5% Na-deoxycholate, 0.1% SDS, 2 mM EDTA, and 50 mM NaF) supplemented with protease and phosphatase inhibitor cocktails (Roche/Thermo Fisher Scientific). […] Protein concentration was determined by the Lowry method. […] Samples were analyzed by immunoblotting using standard procedures.

HEK293T cells [5] = assay: Oxygen consumption rate in HEK293T cells (Seahorse XF96); assay type: cell-based, human; settings: 24 h, compared with Dox
Description: B. Oxygen consumption rate of HEK293T cells exposed to different concentrations of Dox, 9-TB, or ATc (n=8). […] Error bars represent standard error mean (SEM).
HEK293T (Human embryonic kidney 293T) cells were purchased from ATCC and have been routinely checked in the laboratory for mycoplasma contamination with the MycoProbe detection kit (R&D systems). HEK293T were grown at 37° C. in a humidified atmosphere of 5% CO2/95% air in DMEM medium with 4.5 g/L glucose (Gibco) including 10% FBS (Gibco), 1× nonessential amino acids (Invitrogen) and 5 mM penicillin/streptomycin (Invitrogen). Cells were treated for 24 h with the indicated doses of compounds 24 hours after seeding. Oxygen consumption rate was measured with the Seahorse XF96 instrument (Seahorse Bioscience) according to the manufacturer's protocol.

[6] = tested on: IFV-A H1N1 PR8 infected BALB/cN mice; assay: RNA-Seq and GSEA of lung, liver and kidney of IFV infected mice (175 PFU, day 7)
P. aeruginosa = assay: Minimum inhibitory concentration (MIC) of bacterial growth; assay type: cell-based; settings: compared with Dox
IFV H1N1 PR8 strain [7] = assay: IFV infection in BALB/cN mice, 1000 PFU, preventive treatment; assay type: in vivo, mouse; settings: Dox 50 mpkd
[8] = tested on: hsp-6::gfp reporter (UPR^mt); assay type: in vivo, Caenorhabditis elegans; settings: microfluidic device; relative to Dox and cco-1 RNAi
IFV H1N1 PR8 strain [9] = assay: IFV infection in BALB/cN mice, 760 PFU, therapeutic treatment; assay type: in vivo, mouse; settings: 9-TB 0.025 and 0.05 mpkd from day 1 post-inoculation, trend, not significant
Description: A. Comparison of bacterial community composition by nonmetric multidimensional scaling (NMDS) based on the Bray-Curtis dissimilarity. B. Comparison of bacterial species diversity in terms of Shannon diversity index (SDI) and richness. Statistical significance assessed by Kruskal-Wallis test and post-hoc Wilcoxon test with p-value adjusted for multiple comparison using the Holm-Bonferroni method. ‘****’: p<0.0001, ‘***’: p<0.001, ‘**’: p<0.01, ‘*’: p<0.05, ‘ns’: p>0.05. C-D. 8-weeks old BALB/cN mice (n=12) were infected intranasally with 760 PFU of IFV-A H1N1 PR8 and injected with 9-TB (0.05, 0.025 mpkd). Survival (C) and clinical score (D) were followed for 14 days post-infection (n=12). Statistical analysis was performed by ANOVA followed by Tukey post-hoc test (*p≤0.05, **p≤0.01, ***p≤0.001). For survival curves, statistical analysis was performed by Log-rank (Mantel-Cox) test (*p≤0.05, **p≤0.01, ***p≤0.001). Error bars represent standard error mean (SEM).
A. Descriptive scheme of the mouse IFV infection experiment depicted in FIG. 5C-D, S5B. B. 8-weeks old BALB/cN mice (n=12) were infected intranasally with 760 PFU of IFV-A H1N1 PR8 and injected with 9-TB (0.05, 0.025 mpkd). Body weight was followed for 14 days post-inoculation (n=12). C. […]

[10] = tested on: mouse bone marrow derived macrophages (BMDM); assay: ISG and MSR gene transcripts by RT-qPCR in BMDM; assay type: cell-based; settings: 24 hours, 9-TB 1.88 μg/ml, ATc 3.75 and 7.5 μg/ml vs Dox 7.5-15 μg/ml
[11] = tested on: hsp-6::gfp reporter (UPR^mt); assay type: in vivo, Caenorhabditis elegans; settings: for UPR^mt activation (hsp-6::gfp reporter): 68 µM, 9-TB at 17 μM; for induction of MSR and in particular mitohormesis: summary of screen of 51 tetracycline derivatives
germ-free C57BL/6J mice = assay type: in vivo, mouse; settings: Dox 500 mpkd in drinking water, 16 days, vs control
Description: B. Volcano plots displaying-log(adj. p-value) and the log fold change (FC) in expression of genes in kidney and liver. Above the graph, the number of differentially expressed genes is indicated (genes with adjusted p value (adj.pval)<0.05). C. […] E. Immunoblots of phosphorylated elF2α (pelF2α) and total elF2α and quantification in liver of Dox-treated germ-free mice.
Body weight at the time of the sacrifice was not different between the control and Dox-treated animals (FIG. 7A), indicating the absence of obvious adverse effects. […] Dox elicited organ-specific transcriptional responses, with the expression of remarkably more genes and different being affected in the kidney compared to the liver (FIG. 7B-C). […] The MSR features the induction of mitochondrial chaperones and proteases, such as Hspa9 and Lonp1, as well as of enzymes mediating adaptation to nutrient deprivation, such as asparagine synthetase (ASNS), which were increased at both the transcript and protein levels (FIG. 1C-D). […] Dox-treated germ-free mice kidneys thus gathered the typical attributes of the ATF4-ISR, a hallmark of the mammalian response to mitochondrial stress.
Male 9 weeks-old C57BL/6J mice were treated for 16 days with 500 mg/kg/day doxycycline hyclate (Sigma) in drinking water. Mice were housed with ad libitum access to water and food and kept under a 12-hour dark/12-hour light cycle. […]

SMILES | induction of transcripts for the mammalian MSR signature genes (HEK293T cells [1]) | gut bacterial community composition (perMANOVA, NMDS) (gut bacterial community) | survival (mice recovering) (IFV H1N1 PR8 strain [2]) [%] | secretion of IFNβ [3] | impact on the mitonuclear protein imbalance (HEK293T cells [4]) [fold] | basal oxygen consumption rate (OCR) (HEK293T cells [5]) | UPR^mt induction, dose-response (GFP signal) [8] | induction of the ISGs and MSR genes [10] | UPR^mt activation (hsp-6::gfp reporter) [11] | induction of MSR and in particular mitohormesis [11] | further results
C[C@H]1c2ccc(C(C)(C)C)c(O)c2C(O)=C2C(=O)[C@]3(O)C(O)=C(C(N)=O)C(=O)[C@@H](N(C)C)[C@@H]3[C@@H](O)[C@@H]21 [9-TB, 9-tert-butyl-doxycycline] | more prominent | no differences were observed | 50 | superior to Dox | ~2 | reduced basal oxygen consumption rate (OCR) in a dose-dependent and more pronounced fashion than Dox | more efficacious at lower doses; also recorded: surpassing the robust UPR^mt caused by cco-1 RNAi feeding | superior to Dox | strongest activators | strongest inducer of MSR | MIC for E. coli (E. coli): significantly higher MIC; viral titer in the lung tissue (IFV H1N1 PR8 strain [2]; day 7 post infection, Dox 40 mpkd, 9-TB 1 mpkd): no significant difference in viral titer; inflammatory and immune-related terms in the lungs (GSEA) ([6]; 9-TB 1 mpkd vs control IFV-infected): significantly down-regulated; immune-related and inflammatory gene sets in liver and kidney (GSEA) ([6]; 9-TB 1 mpkd, Dox 40 mpkd): down-regulated; lung cell type transcript profiles (GSEA) ([6]; 9-TB 1 mpkd, Dox 40 mpkd): reverted the loss of multiple cell types crucial to lung function; MIC for P. aeruginosa (P. aeruginosa): significantly higher MIC; mortality and decline in health (IFV H1N1 PR8 strain [7]; 9-TB 12.5 mpkd i.p.): delayed mortality; viral titer in the lungs (IFV H1N1 PR8 strain [7]; day 5 post-infection, 9-TB 12.5 mpkd): absence of an impact on the viral titer; survival (IFV H1N1 PR8 strain [9]): 20%
Cc1c2c(c(O)c3c(O)cccc13)C(=O)[C@]1(O)C(=O)C(C(N)=O)=C(O)[C@@H](N(C)C)[C@@H]1C2 [ATc, anhydrotetracycline] | more prominent |  |  | superior to Dox | ~2 | reduced basal oxygen consumption rate (OCR) in a dose-dependent and more pronounced fashion than Dox | more efficacious at lower doses | superior to Dox | strongest activators | strongly induce MSR | 
C[C@H]1c2cccc(O)c2C(=O)C2=C(O)[C@]3(O)C(=O)C(C(N)=O)=C(O)[C@@H](N(C)C)[C@@H]3[C@@H](O)[C@@H]21 [Dox, doxycycline] |  | significant difference in composition | 50 |  |  |  |  |  |  |  | bacterial species diversity (Shannon diversity index and richness) (gut bacterial community): lower bacterial species diversity; gene sets involved in cytopathic processes and fibrosis in liver and kidney ([6]; Dox 40 mpkd): induced; Body weight at the time of the sacrifice (germ-free C57BL/6J mice): not different
